Key:
[1] = test system: hiPS cells; test: Attachment of hiPS cells on poly-D-lysine (PDL) in mTeSR; type: cell-based, human; conditions: no signs of defects in cell-cell adhesions
Text: Myosin II controls cell-matrix contacts and detachment-induced apoptosis in hiPS and hiES cells. […] Similar results were obtained from the experiments using hES cells.

[2] = test system: hiPS cells; test: Defined culture on PDL coating in mTeSR (self-renewal over passages); type: cell-based, human
Description: Cell culture. Two independent hES cell lines, H9 (WiCell) and BGN01 (BresaGen), were examined. hiPS cells used in the study include iPS (Foreskin) Clone 1 (WiCell) and two independently derived hiPS cells from normal human dermal fibroblasts (NHDF) which have been characterized by a series of molecular and functional assays. For the regular feeder-free culture, hES or hiPS cells were grown on Matrigel (BD Biosciences)-coated plates in a defined medium, mTeSR (StemCell Technologies). Cells were regularly passaged by the standard method using dispase (Invitrogen) or trypsin-EDTA (Lonza). General stem cell culture techniques are described in Freshney et al., Culture of Human Stem Cells (Culture of Specialized Cells), John Wiley & Sons, 1992 (the disclosure of which is incorporated herein by reference for all purposes). mES cells used in the experiment include CJ7, E14, RW4 (a parental line of NMHCIIA^−/A^− mES cells), NMHCIIA^−/A^−, and NMHCIIB^−/B^− mES cells. Cells were maintained on either mitotically inactivated mouse embryonic fibroblasts or gelatin (Sigma)-coated dishes with the standard medium in the presence of leukemia inhibitory factor (LIF) at 1400 U/ml (Millipore). For the microscopic or immunofluorescent analysis, cells were plated at approximately 5000-10000 cells/cm^2. For the defined culture, cells were plated at approximately 10000 cells/cm^2 on plates freshly coated with PDL or PDL-precoated plates (BD Bioscience) in mTeSR supplemented with 2.5 to 5 μM of blebbistatin or Y-27632. Medium was changed every day or every other day depending on confluency. Cells were passaged by using trypsin-EDTA every 3 to 4 days.

[3] = test system: cleaved caspase-3; test: Western analysis of cleaved caspase-3; type: cell-based, human; conditions: hiPS cells under adherence condition
Description: Total protein was extracted with RIPA buffer (20 mM Tris-HCl, pH 7.5, 150 mM NaCl, 1 mM Na2EDTA, 1 mM EGTA, 1% NP-40, 1% sodium deoxycholate, 2.5 mM sodium pyrophosphate, 1 mM β-glycerophosphate, 1 mM Na3VO4, and protease inhibitors). Protein concentrations were determined by BCA Protein Assay kit (Pierce). An equal amount (20 μg) of protein was loaded in each lane, separated by 10% SDS/PAGE, and transferred onto a PVDF membrane (BioRad). The membrane was blocked in Odyssey blocking buffer (LI-COR Biotechnology), and subsequently incubated with primary antibodies against Oct3 (Santa Cruz Biotechnology), Nanog (Millipore), myosin IIA (Covance), myosin IIB (Covance), cleaved caspase-3 (Cell Signaling), or β-actin (Sigma) at 4° C. overnight followed by incubation with peroxidase-conjugated goat anti-mouse IgG or goat anti-rabbit IgG (Jackson ImmunoResearch, Inc.), and developed with ECL reagent (GE Healthcare).

[4] = test system: hiPS cells; test: TUNEL assay (apoptosis); type: cell-based, human
Description: The samples in triplicates used for cell viability assay were immediately tested by TUNEL assay by using APO-DIRECT kit (BD Pharmingen) according to the manufacturer's protocol. The number of TUNEL (FITC) or propidium iodide (PI)-positive cells was counted by hemocytometer under fluorescent microscopy with 20× objective. When necessary, FITC-labeled cells were verified by using 40× objective to exclude non-specific signal. At least 300 cells were evaluated per each sample and counting was repeated for 2 times. The ratio of the number of TUNEL-positive cells to the number of PI-positive cells was calculated. The representative result was shown in the figure from experiments repeated for at least 3 times. Although flow cytometric analysis was initially attempted, due to persistent cell aggregations from suspension culture experiments even after extensive trypsinization and trituration, we decided to switch to manual cell counting which well correlated with the data obtained from cell viability assay.

[5] = test system: hES cells; test: Cell-cell contact of hES cells (morphology, cell contact index); type: cell-based, human; conditions: hES cells, 10 μM
Description: Rock and myosin II regulate cell-cell interactions in hES cells. To test whether the observed function of RRM signaling in cell-cell contacts in mES cells is conserved in hES cells, H1 cells grown under the feeder-free condition with Matrigel™ and conditioned medium (CM) (FIG. 3A) were treated with C3 exoenzyme. […] Rock-inhibitor treatment also led to cell adhesion defects although it required a higher concentration (20 μM) than that (10 μM) for mES cells (FIG. 3C). Myosin IIA and IIB were colocalized with cell-cell borders in hES cells, which indicates their potential role in cell-cell adhesions (FIG. 3D).

[6] = test system: hiPS cells; test: Cell viability under suspension culture; type: cell-based, human; conditions: 2 days
Description: For the evaluation of cell viability under suspension culture, hES or hiPS cells were plated at 5×10^5 in non-tissue culture-treated 6-well plates with non-conditioned standard hESm containing blebbistatin or Y-27632 at different concentrations in triplicates. After 2 days, cells were harvested with trypsinization and extensive trituration by pipetting, and the number of live cells was manually counted by using hemocytometer and trypan blue staining. The cell survival ratio (%) represents the ratio of the number of live cells to the number of cells plated. The same samples were subjected to TUNEL assay for side by side comparison with the data from cell viability assay.

[7] = test system: hiPS cells; test: Cell growth assay (population doubling time); type: cell-based, human; conditions: hiPS cells on PDL in mTeSR, compound at 5 μM
Description: For the cell growth assay, hiPS or hES cells were plated at 2.5×10^4 cells/cm^2 on plates coated with PDL or Matrigel in mTeSR in the presence of blebbistatin at 5 μM or Y-27632 at 5 μM (PDL) or in the absence of compounds (Matrigel). Cells were harvested at the indicated time points, stained with trypan blue, and counted by the hemocytometer.

[8] = test system: hiPS and hES cells; test: Standard G-banded karyotyping; type: cell-based, human; conditions: cells grown under blebbistatin/PDL for 20 passages
Description: Standard G-banded karyotyping was carried out for each cell line approximately every 10 to 20 passages.

[9] = test system: hES or hiPS cells grown under the defined condition; test: Teratoma formation in SCID/beige mice; type: in vivo, mouse; conditions: cells grown under blebbistatin/PDL for 20 passages, about 2×10^6 cells subcutaneously, 4 to 8 weeks
Text: All animal-related protocols were approved by Institutional Animal Care and Use Committee. Cells (approximately 2×10^6 cells) grown under defined conditions for multiple passages with occasional freezing and thawing were subcutaneously injected into severe combined immunodeficient (SCID)/beige mice (Charles River Laboratories). After 4 to 8 weeks, the developed teratomas were excised, fixed in 4% paraformaldehyde or 10% formalin, and subjected to histological section preparations.

## Cc1ccc2c(c1)C(=O)C1(O)CCN(c3ccccc3)C1=N2 (stereo not shown) [blebbistatin, 1-Phenyl-1,2,3,4-tetrahydro-4-hydroxypyrrolo[2,3-b]-7-methylquinolin-4-one]
[1]
  Minimum concentration supporting attachment of hiPS cells on PDL: 2 µM
[2]
  Growth and cell survival rates compared with Y27632: higher growth and cell survival rates than the cells treated with Y27632
[2]; 2.5 μM, over 15 passages
  Cytokinesis defects such as multinucleated cells: without any signs of cytokinesis defects
[2]; PDL-coating, mTeSR
  Minimum concentration sufficient for supporting cell-matrix interactions but not affecting cell-cell adhesions: 2.5 µM
[3]
  Cleaved caspase-3 level by Western analysis: decreased
[4]; hPS cells in suspension culture
  Level of apoptosis (TUNEL and cleaved caspase-3 assays): significantly lower levels of apoptosis
[4]; hiPS cells under adherence condition, 24 h, n=3 (control 73±2.5%)
  TUNEL-positive cells: 11±3.8%
[5]
  Effect on cell-cell connections: disrupted cell-cell connections
[6]; hPS cells in suspension, various concentrations
  Effect on survival in suspension culture: higher viability than Y-27632
[6]; hiPS cells in suspension culture, 10 μM, n=3
  Number of live cells: 1.6±0.12×10^5 cells
[7]
  Population doubling time: approximately 32.1 h
[8]
  Karyotype: maintain genomic integrity
[9]
  Teratoma histology: contain all three germ-layer derived differentiated tissues

Reference: patent publication US8609417B2, “Methods and compositions for stem cell cultures” (The Regents of the University of California, priority 2009, dated 2013)
